Assay results taken from ChEMBL document CHEMBL5038621, “Development of anti-inflammatory peptidomimetics based on the structure of human alpha1-antitrypsin” (2022).
Calls of active or inactive are those of the source. No cut-off for these calls is given here. Peptide text beside a SMILES is read from it.

Key:
[1] = Antiinflammatory activity against LPS-stimulated ThG elicited C57BL/6 mouse peritoneal macrophages assessed as inhibition of LPS-induced IL6 production measured after 24 hrs by Griess assay; assay type: functional, Peritoneal macrophage; parameters: concentration or dose not given beside the values
[2] = Antiinflammatory activity against LPS-stimulated ThG elicited C57BL/6 mouse peritoneal macrophages assessed as reduction in cell surface CD40 expression measured after 24 hrs by Flow cytometry analysis; assay type: functional, Peritoneal macrophage; parameters: concentration or dose not given beside the values
[3] = Antiinflammatory activity against LPS-stimulated ThG elicited C57BL/6 mouse peritoneal macrophages assessed as reduction in cell surface CD86 expression measured after 24 hrs by Flow cytometry analysis; assay type: functional, Peritoneal macrophage; parameters: concentration or dose not given beside the values
[4] = Antiinflammatory activity against LPS-stimulated ThG elicited C57BL/6 mouse peritoneal macrophages assessed as inhibition of LPS-induced TNFalpha production measured after 24 hrs by ELISA; assay type: functional, Peritoneal macrophage; parameters: scale not given: the % may be the effect or the level left
[5] = Antiinflammatory activity against LPS-stimulated ThG elicited C57BL/6 mouse peritoneal macrophages assessed as inhibition of LPS-induced NO production measured after 24 hrs by Griess assay; assay type: functional, Peritoneal macrophage; parameters: concentration or dose not given beside the values
[6] = system: Mus musculus; test: Antiinflammatory activity in LPS-induced C57BL/6 mouse peritonitis model assessed as reduction in LPS-induced serum IL-6 levels at 50 ug, ip treated for 3 hrs followed by LPS stimulation and measured after 24 hrs post stimulation by ELISA; assay type: functional; parameters: scale not given: the % may be the effect or the level left; conditions: dose 50 µg
[7] = system: Mus musculus; test: Antiinflammatory activity in LPS-induced C57BL/6 mouse peritonitis model assessed as reduction in LPS-induced serum TNF alpha levels at 50 ug, ip treated for 3 hrs followed by LPS stimulation and measured after 24 hrs post stimulation by ELISA; assay type: functional; parameters: scale not given: the % may be the effect or the level left; conditions: dose 50 µg
[8] = system: Mus musculus; test: Antiinflammatory activity in LPS-induced C57BL/6 mouse peritonitis model assessed as reduction in CD40 protein expression at 50 ug, ip treated for 3 hrs followed by LPS stimulation and measured after 24 hrs post stimulation by flow cytometry; assay type: functional; parameters: scale not given: the % may be the effect or the level left; conditions: dose 50 µg
[9] = system: Mus musculus; test: Antiinflammatory activity in LPS-induced C57BL/6 mouse peritonitis model assessed as increase in F4/80 peritoneal cell population at 50 ug, ip treated for 3 hrs followed by LPS stimulation and measured after 24 hrs post stimulation by flow cytometry; assay type: functional; conditions: dose 50 µg
[10] = system: Mus musculus; test: Antiinflammatory activity in LPS-induced C57BL/6 mouse peritonitis model assessed as reduction in CD86 protein expression at 50 ug, ip treated for 3 hrs followed by LPS stimulation and measured after 24 hrs post stimulation by flow cytometry; assay type: functional; parameters: scale not given: the % may be the effect or the level left; conditions: dose 50 µg
[11] = system: Mus musculus; test: Antiinflammatory activity in LPS-induced C57BL/6 mouse peritonitis model assessed as increase in Gr1 cell population at 50 ug, ip treated for 3 hrs followed by LPS stimulation and measured after 24 hrs post stimulation by flow cytometry; assay type: functional; conditions: dose 50 µg
[12] = target: T1, Neutrophil elastase (Homo sapiens) (UniProt P08246); test: Inhibition of neutrophil elastase (unknown origin) at 0.96 to 96.15 uM; conditions: dose 0.96-96.15 µM
T1 sequence (whole entry): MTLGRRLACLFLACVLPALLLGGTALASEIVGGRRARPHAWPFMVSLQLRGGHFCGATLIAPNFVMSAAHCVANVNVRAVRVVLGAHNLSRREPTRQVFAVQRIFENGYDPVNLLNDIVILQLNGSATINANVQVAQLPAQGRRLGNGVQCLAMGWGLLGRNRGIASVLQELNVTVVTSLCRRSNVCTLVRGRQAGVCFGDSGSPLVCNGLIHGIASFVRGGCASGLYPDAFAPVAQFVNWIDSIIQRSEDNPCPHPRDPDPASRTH

inhibition [12] | Structure (SMILES) | Activity [1] [%] | Activity [2] [%] | Activity [3] [%] | Activity [5] [%] | other results
 | COc1cccc(C(=O)NC(Cc2c[nH]cn2)C(=O)NC(C(N)=O)c2ccccc2)c1OC (configuration not stated) | 46.3 |  |  |  | 
 | NC(=O)c1ccc(CNC(=O)C(Cc2c[nH]cn2)NCc2ccc(O)cc2)cc1 (configuration not stated) | 46.3 | 49.3 | 20.4 |  | 
 | NC(=O)CCC(NC(=O)C1Cc2nc[nH]c2CN1)C(N)=O (configuration not stated) | 46.3 |  |  |  | Activity [4]: 24.4%
 | COc1cccc(C(=O)NC(Cc2c[nH]cn2)C(=O)NCc2ccc(C(N)=O)cc2)c1OC (configuration not stated) | 46.3 |  |  | 29.5 | 
 | NC(=O)c1ccc(CNC(=O)C(Cc2c[nH]cn2)NCc2cccc(O)c2)cc1 (configuration not stated) | 46.3 |  |  |  | 
 | NC(=O)C(NC(=O)C(Cc1c[nH]cn1)NCc1ccc(O)cc1)c1ccccc1 (configuration not stated) | 33.5 | 27.4 | 16.4 | 38.7 | Activity [6]: 80.6%; Activity [4]: 19.9%; Activity [7]: 73.4%; Activity [8]: 47.3%; Activity [9]: 130.4%; Activity [10]: 45.6%; Activity [11]: 48.4%
inactive | CC[C@H](C)[C@H](NC(=O)[C@H](CO)NC(=O)[C@H](CC(C)C)NC(=O)[C@H](CC(C)C)NC(=O)[C@@H](NC(=O)CNC(=O)[C@@H](NC(=O)[C@H](C)NC(C)=O)[C@@H](C)O)[C@@H](C)O)C(=O)N[C@@H](CC(N)=O)C(N)=O (Ac-ATGTLLSIN-NH2) |  |  |  |  | 
inactive | CC(=O)N[C@@H](CC(=O)O)C(=O)N[C@@H](CC(C)C)C(=O)N[C@@H](CCCCN)C(=O)N[C@@H](CCCCN)C(=O)N[C@@H](CC(=O)O)C(=O)N[C@@H](CCCCN)C(=O)N[C@@H](C)C(N)=O (Ac-DLKKDKA-NH2) |  |  |  |  | 
inactive | CC(=O)N[C@@H](Cc1ccccc1)C(=O)N[C@@H](CCCNC(=N)N)C(=O)N[C@@H](Cc1ccc(O)cc1)C(=O)N[C@@H](CC(C)C)C(=O)N[C@H](C(=O)N[C@@H](CC(C)C)C(=O)N[C@@H](Cc1ccccc1)C(N)=O)C(C)C (Ac-FRYLVLF-NH2) |  |  |  |  | 
inactive | CC(=O)N[C@@H](Cc1c[nH]cn1)C(=O)N[C@@H](CS)C(=O)N[C@@H](CCCCN)C(=O)N[C@@H](CCCCN)C(=O)N[C@@H](CC(C)C)C(=O)NCC(=O)N[C@@H](CCCCN)C(=O)N[C@@H](Cc1ccccc1)C(N)=O (Ac-HCKKLGKF-NH2) |  |  |  |  | 
inactive | CC(=O)N[C@@H](CC(C)C)C(=O)N[C@@H](CCC(=O)O)C(=O)NCC(=O)N1CCC[C@H]1C(=O)N[C@@H](CCCCN)C(=O)N[C@@H](C)C(N)=O (Ac-LEGPKA-NH2) |  |  |  |  | 
inactive | CC[C@H](C)[C@H](NC(=O)[C@@H](NC(=O)[C@H](Cc1ccc(O)cc1)NC(=O)[C@H](CC(C)C)NC(=O)[C@H](Cc1ccccc1)NC(=O)[C@H](CC(C)C)NC(C)=O)C(C)C)C(=O)N[C@@H](Cc1c[nH]cn1)C(N)=O (Ac-LFLYVIH-NH2) | 38.4 | 45.7 |  | 57.6 | 
inactive | CC(=O)N[C@@H](CC(C)C)C(=O)N1CCC[C@H]1C(=O)N[C@@H](CC(N)=O)C(=O)N[C@@H](CO)C(=O)N[C@@H](CC(C)C)C(=O)NCC(=O)N[C@@H](CC(N)=O)C(N)=O (Ac-LPNSLGN-NH2) |  |  | 24.7 | 70.3 | 
inactive | CC(=O)N[C@@H](CCC(N)=O)C(=O)N[C@@H](Cc1ccccc1)C(=O)N[C@@H](Cc1ccccc1)C(=O)N[C@@H](CCCCN)C(=O)NCC(=O)N[C@@H](CCCCN)C(N)=O (Ac-QFFKGK-NH2) |  | 41.6 | 35.2 | 51.8 | 
inactive | CC[C@H](C)[C@H](NC(=O)[C@H](CCC(=O)O)NC(=O)[C@H](CC(C)C)NC(=O)[C@H](CCCCN)NC(=O)[C@H](CCCCN)NC(=O)[C@H](CS)NC(=O)[C@H](Cc1c[nH]cn1)NC(=O)[C@H](CCC(N)=O)NC(C)=O)C(=O)N[C@@H](CCCCN)C(N)=O (Ac-QHCKKLEIK-NH2) |  |  |  |  | 
inactive | CC(=O)N[C@@H](Cc1ccc(O)cc1)C(=O)N[C@@H](CCCNC(=N)N)C(=O)N[C@@H](C)C(=O)N[C@@H](Cc1c[nH]cn1)C(=O)N[C@@H](CCC(N)=O)C(=O)NCC(=O)N[C@@H](CCC(=O)O)C(N)=O (Ac-YRAHQGE-NH2) | 52.2 | 55.3 | 52.4 | 66.9 | 
